From patent US20240391881A1, “PHARMACEUTICAL USE AND PREPARATION METHOD FOR SUBSTITUTED HETEROARYL PHTHALAZINE DERIVATIVE” (ORIGIANT PHARMACEUTICAL CO., LTD., priority 2021, published 2024)

Molecular target: T1, NLRP3 inflammasomes (Homo sapiens, UniProt Q96P20)
T1 construct: endogenous in cells; host or cells: THP-1 human monocytic cells, PMA-differentiated, LPS-primed, nigericin-stimulated
Test: THP-1 pyroptosis test (cell pyroptosis test)
Format: cell-based
Details: THP-1 cells differentiated with PMA, LPS stimulation, 10 μM nigericin, drug 0.001-10 μM, MTT absorbance 562 nm
Description: In vitro activity screening was performed on small molecule compounds targeting inhibition on NLRP3 inflammasomes using THP-1 human monocytic cells (THP-1). THP-1 can be induced to differentiate into macrophages by phorbol ester (PMA), and the macrophages M1 can be induced to polarize by lipopolysaccharide (LPS) to release cytokines such as TNF-α, and IL-6, so as to establish a typical inflammatory model.
THP-1 cells in a logarithmic growth phase were collected to prepare a 1×10^6 cells/mL cell suspension, PMA was added to achieve a final concentration of 300 ng/mL in the cell suspension, then 1×10^5 cells were inoculated to each well of a 96-well plate, and the cells were cultured in a 37° C., 5% CO2 cell incubator for 24 hours and induced to differentiate into macrophages.
The next day, LPS was added to stimulate and induce the cells to produce an inflammatory model. […] In the 200 μL system of the 96-well plate, the final concentration of each drug was 0.001-10 μM, and the final concentration of the nigericin was 10 μM.
Cell apoptosis protection rate=[(X−C0)/(C−C0)]×100%
wherein, C, C0 and X represent average absorbance values of the normal cell group, the blank control group, and the drug treatment group, respectively. Finally, cell survival curves were fitted by Graphpad Prism 5.0 software and EC50 values of the compounds to be tested in inhibiting pyroptosis caused by NLRP3 inflammasomes were calculated.

T1 sequence (Q96P20 whole entry): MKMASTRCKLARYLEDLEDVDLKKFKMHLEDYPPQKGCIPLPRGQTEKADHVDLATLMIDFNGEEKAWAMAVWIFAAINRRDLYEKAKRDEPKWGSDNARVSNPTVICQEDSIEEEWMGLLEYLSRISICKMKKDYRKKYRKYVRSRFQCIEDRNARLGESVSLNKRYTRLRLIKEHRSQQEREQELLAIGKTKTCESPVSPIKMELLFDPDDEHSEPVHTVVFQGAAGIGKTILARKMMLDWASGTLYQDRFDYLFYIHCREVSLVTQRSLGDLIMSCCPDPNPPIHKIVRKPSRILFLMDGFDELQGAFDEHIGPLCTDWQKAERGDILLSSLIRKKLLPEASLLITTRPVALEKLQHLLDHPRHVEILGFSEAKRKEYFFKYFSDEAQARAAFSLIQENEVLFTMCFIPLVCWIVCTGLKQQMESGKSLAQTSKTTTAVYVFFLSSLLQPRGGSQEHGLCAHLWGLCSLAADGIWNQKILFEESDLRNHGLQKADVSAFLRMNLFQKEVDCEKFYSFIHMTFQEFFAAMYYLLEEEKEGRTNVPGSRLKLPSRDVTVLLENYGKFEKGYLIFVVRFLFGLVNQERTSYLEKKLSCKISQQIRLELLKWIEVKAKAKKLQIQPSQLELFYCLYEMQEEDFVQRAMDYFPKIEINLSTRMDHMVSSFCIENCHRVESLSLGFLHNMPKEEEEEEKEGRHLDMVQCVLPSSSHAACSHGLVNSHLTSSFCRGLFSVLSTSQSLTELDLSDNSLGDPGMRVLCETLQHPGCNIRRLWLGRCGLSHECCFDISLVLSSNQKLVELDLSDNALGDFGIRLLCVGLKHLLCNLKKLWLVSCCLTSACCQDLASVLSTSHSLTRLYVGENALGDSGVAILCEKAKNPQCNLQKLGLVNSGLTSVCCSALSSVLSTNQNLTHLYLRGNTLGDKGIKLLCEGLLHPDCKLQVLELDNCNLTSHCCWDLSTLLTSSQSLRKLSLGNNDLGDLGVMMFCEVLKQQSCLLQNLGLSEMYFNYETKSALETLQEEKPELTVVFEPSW

| SMILES | EC50 [nM] |
| --- | --- |
| Cc1ccc(-c2nnc(NCCN3CCOCC3)c3c2cnn3C)c(O)c1 [Compound 74] | > 1000 |
| C[C@H](Nc1nnc(-c2ccc(C(F)(F)F)cc2O)c2ccccc12)c1ccccc1 [Compound 8, (S)-2-(4-((1-phenylethyl)amino)phthalazin-1-yl)-5-(trifluoromethyl)phenol] | > 1000 |
| CN(C)[C@H]1CC[C@H](Nc2nnc(-c3ccc(C(F)(F)F)cc3O)c3ccccc23)CC1 [Compound 18] | 500 to 1000 |
| Oc1cc(C(F)(F)F)ccc1-c1nnc(N[C@@H]2CCCNC2)c2ccccc12 [Compound 22, (R)-2-(4-(piperidin-3-ylamino)phthalazin-1-yl)-5-(trifluoromethyl)phenol] | < 20 |
| CC(C)N1CCC[C@@H](Nc2nnc(-c3ccc(C(F)(F)F)cc3O)c3c2cnn3C)C1 [Compound 87] | < 20 |
| CCN1CC[C@@H](CNc2nnc(-c3ccc(C(F)(F)F)cc3O)c3c2cnn3C)C1 [Compound 71] | > 1000 |
| CN1C[C@H](Nc2nnc(-c3ccc(C(F)(F)F)cc3O)c3c2cnn3C)CCC1=O [Compound 66] | 100 to 500 |
| COc1ccc2c(-c3ccc(C(F)(F)F)cc3O)nnc(N[C@@H]3CCCN(C)C3)c2c1 [Compound 6, (R)-2-(6-methoxy-4-((1-methylpiperidin-3-yl)amino)phthalazin-1-yl)-5-(trifluoromethyl)phenol] | < 20 |
| CN1CCC[C@@H](Nc2nnc(-c3ccc(C(F)(F)F)cc3O)c3c2cnn3C)C1 [Compound 63, (R)-2-(1-methyl-4-((1-methylpiperidin-3-yl)amino)-1H-pyrazolo[3,4-d]pyridazin-7-yl)-5-(trifluoromethyl)phenol] | < 20 |
| CN1CC[C@@H](Nc2nnc(-c3ccc(C(F)(F)F)cc3O)c3c2cnn3C)C1 [Compound 72] | 20 to 100 |
| Cn1cnc2c(O[C@@H]3CCCN(CC(F)(F)F)C3)nnc(-c3ccc(C(F)(F)F)cc3O)c21 [Compound 84] | > 1000 |
| COc1ccc2c(N[C@@H]3CCCN(C)C3)nnc(-c3ccc(C(F)(F)F)cc3O)c2c1 [Compound 5, (R)-2-(7-methoxy-4-((1-methylpiperidin-3-yl)amino)phthalazin-1-yl)-5-(trifluoromethyl)phenol] | < 20 |
| Cc1cnc2c(N[C@@H]3CCCN(C)C3)nnc(-c3ccc(OC(F)(F)F)cc3O)c2c1 [Compound 61, 2-(3-methyl-8-{[(3R)-1-methylpiperidin-3-yl]amino}pyridino[2,3-d]pyridazin-5-yl)-5-(trifluoromethoxy)phenol] | < 20 |
| CN1CCC[C@@H](Nc2nnc(-c3ccc(C(F)(F)F)cc3O)c3c2nc(C2CC2)n3C)C1 [Compound 59] | < 20 |
| Oc1cc(C(F)(F)F)ccc1-c1nnc(N[C@H]2CCc3ncccc32)c2ccccc12 [Compound 30, (S)-2-(4-((6,7-dihydro-5H-cyclopenta[b]pyridin-5-yl)amino)phthalazin-1-yl)-5-(trifluoromethyl)phenol] | 20 to 100 |
| CN(C)[C@H]1CC[C@@H](Nc2nnc(-c3ccc(C(F)(F)F)cc3O)c3ccccc23)CC1 [Compound 19] | 500 to 1000 |
| Cc1ccc(O)c(-c2nnc(N[C@@H]3CCCN(C)C3)c3ccccc23)c1 [Compound 47, (R)-4-methyl-2-(4-((1-methylpiperidin-3-yl)amino)phthalazin-1-yl)phenol] | > 1000 |
| CCN1CCC[C@@H]1CNc1nnc(-c2ccc(C(F)(F)F)cc2O)c2ccccc12 [Compound 27, (R)-2-(4-(((1-ethylpyrrolidin-2-yl)methyl)amino)phthalazin-1-yl)-5-(trifluoromethyl)phenol] | 500 to 1000 |
| CN1CCC[C@@H](Nc2nnc(-c3ccc(F)cc3O)c3ccccc23)C1 [Compound 44, (R)-5-fluoro-2-(4-((1-methylpiperidin-3-yl)amino)phthalazin-1-yl)phenol] | 20 to 100 |
| Cn1cnc2c(-c3ccc(C(F)(F)F)cc3O)nnc(NCC3CCOCC3)c21 [Compound 80] | > 1000 |
| CCN1CCC[C@@H](Nc2nnc(-c3ccc(C(F)(F)F)cc3O)c3ccccc23)C1 [Compound 23, (R)-2-(4-((1-ethylpiperidin-3-yl)amino)phthalazin-1-yl)-5-(trifluoromethyl)phenol] | < 20 |
| CN1CCC[C@@H](Nc2nnc(-c3ccc(C(F)(F)F)cc3C(F)F)c3c2cnn3C)C1 [Compound 88] | 20 to 100 |
| CN1CCC[C@@H]1CNc1nnc(-c2ccc(C(F)(F)F)cc2O)c2ccccc12 [Compound 26] | 500 to 1000 |
| CN1CCC[C@@H](Nc2nnc(-c3ccccc3O)c3ccccc23)C1 [Compound 31, (R)-2-(4-((1-methylpiperidin-3-yl)amino)phthalazin-1-yl)phenol] | 500 to 1000 |
| Cc1ccc2c(-c3ccc(C(F)(F)F)cc3O)nnc(N[C@@H]3CCCN(C)C3)c2n1 [Compound 52, (R)-2-(2-methyl-8-((1-methylpiperidin-3-yl)amino)pyridino[2,3-d]pyridazin-5-yl)-5-(trifluoromethyl)phenol] | < 20 |

| SMILES | EC50 [nM] |
| --- | --- |
| CN1CC(Nc2nnc(-c3ccc(C(F)(F)F)cc3O)c3ncn(C)c23)CCC1=O (stereo not shown) [Compound 81] | > 1000 |
| Cc1ccc(-c2nnc(N[C@@H]3CCCN(C)C3)c3c2cnn3C)c(O)c1 [Compound 64] | < 20 |
| Cn1cnc2c(NCCN3CCOCC3)nnc(-c3ccc(F)cc3O)c21 [Compound 82] | > 1000 |
| CN1CCC[C@@H](Nc2nnc(-c3ccc(OC(F)(F)F)cc3O)c3ccccc23)C1 [Compound 41, (R)-2-(4-((1-methylpiperidin-3-yl)amino)phthalazin-1-yl)-5-(trifluoromethoxy)phenol] | < 20 |
| Cc1nc2c(N[C@@H]3CCCN(C)C3)nnc(-c3ccc(C(F)(F)F)cc3O)c2n1C [Compound 57] | < 20 |
| Cn1cnc2c(NCCN3CCOCC3)nnc(-c3ccc(C(F)(F)F)cc3O)c21 [Compound 76] | > 1000 |
| Cc1cnc2c(N[C@@H]3CCCN(C)C3)nnc(-c3ccc(F)cc3O)c2c1 [Compound 55, (R)-5-fluoro-2-(3-methyl-8-((1-methylpiperidin-3-yl)amino)pyridino[2,3-d]pyridazn-5-yl)phenol] | < 20 |
| Oc1cc(C(F)(F)F)ccc1-c1nnc(N[C@@H]2CCc3ncccc32)c2ccccc12 [Compound 29, (R)-2-(4-((6,7-dihydro-5H-cyclopenta[b]pyridin-5-yl)amino)phthalazin-1-yl)-5-(trifluoromethyl)phenol] | 20 to 100 |
| Cn1cnc2c(N[C@H]3CCc4ncccc43)nnc(-c3ccc(C(F)(F)F)cc3O)c21 [Compound 78] | > 1000 |
| Cn1ncc2c(NCCN3CCOCC3)nnc(-c3ccc(C(F)(F)F)cc3O)c21 [Compound 73] | 500 to 1000 |
| CN1CCC[C@@H](Nc2nnc(-c3ccc(C(F)(F)F)cc3O)c3cc(F)ccc23)C1 [Compound 16, 2-(7-fluoro-4-{[(3R)-1-methylpiperidin-3-yl]amino}phthalazin-1-yl)-5-(trifluoromethyl)phenol] | < 20 |
| CN1CCC[C@@H](Nc2nnc(-c3ccc(C(F)(F)F)cc3O)c3cnn(C)c23)C1 [Compound 62, (R)-2-(1-methyl-7-((1-methylpiperidin-3-yl)amino)-1H-pyrazolo[3,4-d]pyridazin-4-yl)-5-(trifluoromethyl)phenol] | < 20 |
| Cc1ccc(-c2nnc(N[C@@H]3CCCN(C)C3)c3cnn(C)c23)c(O)c1 [Compound 65] | < 20 |
| CN1CC[C@@H](Oc2nnc(-c3ccc(C(F)(F)F)cc3O)c3c2ncn3C)C1 [Compound 85] | > 1000 |
| Cc1cnc2c(N[C@@H]3CCCN(C)C3)nnc(-c3ccccc3O)c2c1 [Compound 56, (R)-2-(3-methyl-8-((1-methylpiperidin-3-yl)amino)pyridino[2,3-d]pyridazin-5-yl)phenol] | < 20 |
| CN1CCC[C@@H](Nc2nnc(-c3ccc(C(F)(F)F)cc3O)c3c2nc(C(F)(F)F)n3C)C1 [Compound 58] | < 20 |
| Oc1cc(C(F)(F)F)ccc1-c1nnc(NCCN2CCOCC2)c2ccccc12 [Compound 21, 2-(4-((2-morpholinylethyl)amino)phthalazin-1-yl)-5-(trifluoromethyl)phenol] | > 1000 |
| CN1CCC(Nc2nnc(-c3ccc(F)cc3O)c3cnn(C)c23)CC1 [Compound 69] | > 1000 |
| CN1CCC[C@@H](Oc2nnc(-c3ccc(C(F)(F)F)cc3O)c3c2ncn3C)C1 [Compound 86] | > 1000 |
| CCN1CCC[C@H]1CNc1nnc(-c2ccc(C(F)(F)F)cc2O)c2ccccc12 [Compound 28] | 100 to 500 |
| CN1CCC[C@@H](Nc2nnc(-c3ccc(C(F)(F)F)cc3O)c3ccncc23)C1 [Compound 17] | < 20 |
| CN1CC[C@@H](Nc2nnc(-c3ccc(C(F)(F)F)cc3O)c3ccccc23)C1 [Compound 24, (R)-2-(4-((1-methylpyrrolidin-3-yl)amino)phthalazin-1-yl)-5-(trifluoromethyl)phenol] | < 20 |
| CN1CCC(Nc2nnc(-c3ccc(F)cc3O)c3c2cnn3C)CC1 [Compound 70] | > 1000 |
| Cn1cnc2c(N[C@H]3CCCc4ncccc43)nnc(-c3ccc(C(F)(F)F)cc3O)c21 [Compound 79] | > 1000 |
